Measurements as given in the NIST ThermoML archive (doi:10.1016/j.fluid.2016.10.026).

Conditions: for mass density / kinematic viscosity / speed of sound / vapor or sublimation pressure: Liquid; for mass density: Vibrating tube method; for surface tension liquid-gas: Drop volume; for kinematic viscosity: Capillary tube (Ostwald / Ubbelohde) method; for speed of sound: Frequency=3 MHz, Sing-around technique in a fixed-path interferometer; for vapor or sublimation pressure: Ebulliometric method (Recirculating still)

CC(=O)c1cccs1 [2-acetylthiophene]
Conditions	kinematic viscosity [m2/s]	mass density [kg/m3]	speed of sound [m/s]
313.15 K, 25000 kPa	–	1167.08	–
313.15 K, 30000 kPa	–	1169.85	–
313.15 K, 35000 kPa	–	1172.56	–
313.15 K, 40000 kPa	–	1175.19	–
313.15 K, 45000 kPa	–	1177.74	–
313.15 K, 50000 kPa	–	1180.24	–
313.15 K, 55000 kPa	–	1182.67	–
313.15 K, 60000 kPa	–	1185.04	–
313.15 K, 65000 kPa	–	1187.36	–
315.65 K, 101 kPa	1.58e-06	1149.57	1409
318.15 K, 100 kPa	–	1147.15	–
318.15 K, 101 kPa	1.51e-06	1147.18	1400.3
318.15 K, 2000 kPa	–	1148.56	–
318.15 K, 5000 kPa	–	1150.49	–
318.15 K, 7000 kPa	–	1151.77	–
318.15 K, 10000 kPa	–	1153.65	–
318.15 K, 15000 kPa	–	1156.74	–
318.15 K, 20000 kPa	–	1159.72	–
318.15 K, 25000 kPa	–	1162.64	–
318.15 K, 30000 kPa	–	1165.47	–
318.15 K, 35000 kPa	–	1168.21	–
318.15 K, 40000 kPa	–	1170.9	–
318.15 K, 45000 kPa	–	1173.5	–
318.15 K, 50000 kPa	–	1176.04	–
318.15 K, 55000 kPa	–	1178.53	–
318.15 K, 60000 kPa	–	1180.93	–
318.15 K, 65000 kPa	–	1183.29	–
320.65 K, 101 kPa	1.45e-06	1144.79	1391.8
323.15 K, 100 kPa	–	1142.34	–
323.15 K, 101 kPa	1.39e-06	1142.39	1383.4
323.15 K, 2000 kPa	–	1143.79	–
323.15 K, 5000 kPa	–	1145.78	–
323.15 K, 7000 kPa	–	1147.09	–
323.15 K, 10000 kPa	–	1149.02	–
323.15 K, 15000 kPa	–	1152.17	–
323.15 K, 20000 kPa	–	1155.23	–
323.15 K, 25000 kPa	–	1158.22	–
323.15 K, 30000 kPa	–	1161.08	–
323.15 K, 35000 kPa	–	1163.89	–
323.15 K, 40000 kPa	–	1166.63	–
323.15 K, 45000 kPa	–	1169.28	–
323.15 K, 50000 kPa	–	1171.88	–
323.15 K, 55000 kPa	–	1174.4	–
323.15 K, 60000 kPa	–	1176.86	–
323.15 K, 65000 kPa	–	1179.25	–
325.65 K, 101 kPa	1.34e-06	1140	1375
328.15 K, 100 kPa	–	1137.56	–
328.15 K, 101 kPa	1.29e-06	1137.61	1366.5
328.15 K, 2000 kPa	–	1139.02	–
328.15 K, 5000 kPa	–	1141.06	–
328.15 K, 7000 kPa	–	1142.39	–
328.15 K, 10000 kPa	–	1144.38	–
328.15 K, 15000 kPa	–	1147.6	–
328.15 K, 20000 kPa	–	1150.78	–
328.15 K, 25000 kPa	–	1153.79	–
328.15 K, 30000 kPa	–	1156.77	–
328.15 K, 35000 kPa	–	1159.56	–
328.15 K, 40000 kPa	–	1162.34	–
328.15 K, 45000 kPa	–	1165.07	–
328.15 K, 50000 kPa	–	1167.69	–
328.15 K, 55000 kPa	–	1170.28	–
328.15 K, 60000 kPa	–	1172.79	–
328.15 K, 65000 kPa	–	1175.21	–
330.65 K, 101 kPa	1.24e-06	1135.21	1358.1
333.15 K, 100 kPa	–	1132.76	–
333.15 K, 101 kPa	1.2e-06	1132.81	1349.5
333.15 K, 2000 kPa	–	1134.24	–
333.15 K, 5000 kPa	–	1136.33	–
333.15 K, 7000 kPa	–	1137.7	–
333.15 K, 10000 kPa	–	1139.72	–
333.15 K, 15000 kPa	–	1143.11	–
333.15 K, 20000 kPa	–	1146.25	–
333.15 K, 25000 kPa	–	1149.39	–
333.15 K, 30000 kPa	–	1152.35	–
333.15 K, 35000 kPa	–	1155.23	–
333.15 K, 40000 kPa	–	1158.08	–
333.15 K, 45000 kPa	–	1160.83	–
333.15 K, 50000 kPa	–	1163.52	–
333.15 K, 55000 kPa	–	1166.14	–
333.15 K, 60000 kPa	–	1168.68	–
333.15 K, 65000 kPa	–	1171.17	–
335.65 K, 101 kPa	1.16e-06	1130.41	1340.8
338.15 K, 100 kPa	–	1127.97	–
338.15 K, 101 kPa	1.12e-06	1128.01	1332.2
338.15 K, 2000 kPa	–	1129.47	–
338.15 K, 5000 kPa	–	1131.61	–
338.15 K, 7000 kPa	–	1133.01	–
338.15 K, 10000 kPa	–	1135.08	–
338.15 K, 15000 kPa	–	1138.55	–
338.15 K, 20000 kPa	–	1141.78	–
338.15 K, 25000 kPa	–	1144.86	–
338.15 K, 30000 kPa	–	1147.94	–
338.15 K, 35000 kPa	–	1150.94	–
338.15 K, 40000 kPa	–	1153.82	–
338.15 K, 45000 kPa	–	1156.64	–
338.15 K, 50000 kPa	–	1159.38	–
338.15 K, 55000 kPa	–	1162.04	–
338.15 K, 60000 kPa	–	1164.64	–
338.15 K, 65000 kPa	–	1167.11	–

Conditions	surface tension liquid-gas [mN/m]	vapor or sublimation pressure [kPa]
315.65 K	41.14	–
318.15 K	40.87	–
320.65 K	40.58	–
323.15 K	40.27	–
325.65 K	39.97	–
328.15 K	39.7	–
330.65 K	39.43	–
333.15 K	39.12	–
335.65 K	38.88	–
336.16 K	–	0.305
338.15 K	38.58	–
340.77 K	–	0.4
342.94 K	–	0.45
345.74 K	–	0.54
350.41 K	–	0.69
356.58 K	–	0.955
362.84 K	–	1.295
365.84 K	–	1.545
371.37 K	–	2.02
376.26 K	–	2.52
383.49 K	–	3.53
389.55 K	–	4.545
394.16 K	–	5.5
400.53 K	–	7.065
407.19 K	–	9.015
412.74 K	–	11.05
417.12 K	–	13.02
421.69 K	–	15.2
423.25 K	–	15.99
426.08 K	–	17.63
429.93 K	–	20.05
433.16 K	–	22.2
435.59 K	–	24.04
438.37 K	–	26.19
440.66 K	–	28.12
442.49 K	–	29.8
445.02 K	–	32.16
